Experimental data published in patent US10945989B2, “Perinatal treatment with a flavonoid agonist of the TrkB receptor for BDNF rescues neurogenesis and behavior in the Ts65Dn mouse model of DS” (ALMA MATER STUDIORUM—Universita' di Bologna, priority 2017, dated 2021).

Tests used:
[1] = tested on: granule cells of the dentate gyrus; test: Stereology of the DG: total number of granule cells; format: in vivo, mouse; settings: 5.0 mg/kg P3-P15
Protocol: Euploid and Ts65Dn mice received a daily subcutaneous injection (at 9-10 am) of 7,8-DHF (5.0 mg/kg in vehicle: PBS with 1% DMSO) or vehicle from postnatal day 3 (P3) to postnatal day 15. This timing was chosen because it corresponds to that previously used to test the effects of fluoxetine and other pharmacotherapies in the neonate Ts65Dn mouse (Bianchi et al., 2010b; Giacomini et al., 2015; Stagni et al., 2016). Mice that received 7,8-DHF will be called “treated mice” (treated euploid mice: n=25; treated Ts65Dn mice: n=15). Mice that received the vehicle will be called “untreated mice” (untreated euploid mice: n=35; untreated Ts65Dn mice: n=21). […]
Unbiased stereology was performed on Hoechst-stained sections from P15 mice. […] Granule cell nuclei were counted with a ×64 oil objective (1.4 NA). Granule cell nuclei intersecting the uppermost focal plane and intersecting the exclusion lines of the count frame were not counted. […]
where Q is the number of particles counted in the disectors, dis is the number of disectors and Vdis is the volume of the disector. For calculation of Vdis the disector height was corrected for section shrinkage in the z-plane (Dorph Petersen et al., 2001) according to the formula: h=counting thickness×(original thickness/measured thickness). The section thickness was measured during neuron counting at different random locations. […]

[2] = tested on: Ts65Dn and euploid mice; test: Morris Water Maze, learning phase; format: in vivo, mouse
Protocol: Euploid and Ts65Dn mice received a daily subcutaneous injection (at 9-10 am) of 7,8-DHF (5.0 mg/kg in vehicle) or vehicle from postnatal day 3 (P3) to postnatal day P45-P50. […] These mice will be called here P45 mice. Mice were behaviorally tested in the 6 days that preceded the day of sacrifice (FIG. 2B).
Mice were trained in the MWM task to locate a hidden escape platform in a circular pool, using a previously used protocol (Stagni et al., 2016), that was altogether based on a published protocol (Vorhees and Williams, 2006). The apparatus consisted of a large circular water tank (1.00 m diameter, 50 cm height) with a transparent round escape platform (10 cm^2). The pool was virtually divided into four equal quadrants identified as northeast, northwest, southeast, and southwest. The tank was filled with tap water at a temperature of 22±1.0° C. Mice are more prone to undergo hypothermia than rats and in the MWM hypothermia may cause a reduction in swimming speed (livonen et al., 2003). […] This is consistent with evidence that a temperature of 22° C. is “high enough” to reduce stress and potential hypothermia and “low enough” to maintain the animals' motivation to escape the pool (Costa et al., 2010). The tank was filled with water up to 0.5 cm above the top of the platform and the water was made opaque with milk. The platform was placed in the tank in a fixed position (in the middle of the south-west quadrant). The pool was placed in a large room with various intra (squares, triangles, circles and stars) and extra-maze visual cues. Each mouse was tested in one session of 4 trial on the first day and in two sessions of 4 trials in the following 4 days with an inter-session interval of 45 min. A video camera was placed above the center of the pool and connected to a videotracking system (Ethovision 3.1; Noldus Information Technology B.V., Wageningen, Netherlands). Mice were released facing the wall of the pool from one of the following starting points: North, East, South, or West and allowed to search for up to 60 s for the platform. […] During the inter-trail time (10 s) mice were placed in an empty cage. For the learning phase, we evaluated the latency to find the hidden platform, time in periphery, percentage of time in periphery, path length, proximity to the platform, and swimming speed. Retention was assessed with one trial (probe trial), on the sixth day, 24 h after the last acquisition trial, using the same starting point for all mice. Mice were allowed to search for up to 60 s for the platform. For the probe trial, the latency of the first entrance in the former platform zone, the frequency of entrances in the former quadrant, the proximity to the former platform position (Gallagher's test), the percentage of time spent at the periphery (thigmotaxis), the swimming speed and the percentage of time spent in each quadrant were employed as measures of retention of acquired spatial preference. All experimental sessions were carried out between 9.00 am and […]. The following number of mice were tested. Untreated euploid mice: n=19; untreated Ts65Dn mice: n=14; 7,8-DHF-treated euploid mice: n=17; 7,8-DHF-treated Ts65Dn mice: n=16. Three untreated euploid mice (yielding n=16), one 7,8-DHF-treated euploid mouse (yielding n=16) and one 7,8-DHF-treated Ts65Dn mouse (yielding n=15) were excluded from MWM analysis due to thigmotaxis for a whole recording session.

## O=c1cc(-c2ccccc2)oc2c(O)c(O)ccc12 [7,8-DHF, 7,8-dihydroxyflavone]
[1]; P15 Ts65Dn mice
  total number of granule cells: became similar to that of untreated euploid mice
[1]; P15 euploid mice
  total number of granule cells: no effect on total number of granule cells
[2]; Ts65Dn mice
  time spent at the periphery (thigmotaxis): spent a similar time as euploid mice
[2]; Ts65Dn mice, 5.0 mg/kg P3-P45-50, save for day 3
  escape latency (learning phase): not statistically different from that of untreated euploid mice
[2]; Ts65Dn mice, day 5
  path length: shorter in comparison with their untreated counterparts
  proximity (distance from the platform): significantly reduced in comparison with their untreated counterparts
[2]; Ts65Dn mice, significant vs untreated counterparts on day 5
  percentage of time spent at the periphery: underwent a reduction
[2]; euploid mice
  time spent at the periphery (thigmotaxis): reduction in thigmotaxis
[2]; euploid mice, vs untreated, significant on day 2 only
  escape latency (learning phase): latency was reduced
